The results in this text go back to US20050009924A1 (priority 2003, published 2005).

For one data set, the system named is human hepatoma G2 cells. The experiment in a line: Cytotoxicity assay (XTT colorimetric), Hep G2. It counts as cell-based. The note with it: 48 h of drug exposure. In general terms: Formazan colour is commonly taken as a measure of viable cells.
The test system of a further data set is rat glioma C6 cells. The experiment in a line: Cytotoxicity assay (XTT colorimetric), C6 cells. The note with it: 48 h of drug exposure. It counts as cell-based.
In data set [1] the test system is hepatitis B virus transfected hepatoma cell lines, HepG 2.2.15 cells. The experiment in a line: Cytotoxicity assay, 2.2.15 cells. It counts as cell-based, human. To be noted: 48 h of drug exposure.
Data set [2] has as its system transcriptional activity of hTERT. Kind of data set: SEAP reporter assay of hTERT expression, PhTERT-SEAP (hTERT-BJ1). It is filed as cell-based, human. To be noted: PhTERT-SEAP (hTERT-BJ1). As for the experimental part:
(§1) Secreted alkaine phosphatase was used as the reporter system to monitor the transcriptional activity of hTERT. Here, about […] each were grown in 96-well plates and incubated at 37° C. for 24 h and changed with fresh media. Varying amounts of drugs were added and cells were incubated for another 24 h. Culture media were collected and heated at 65° C. for 10 min to inactivate heat-labile phosphatases. An equal amount of SEAP buffer (2 M diethanolamine, 1 mM MgCl2, and 20 mM […]) was added to the media and p-nitrophenyl phosphate was added to a final concentration of 12 mM. Absorptions at 405 nm were taken, and the rate of absorption increase is determined.
(§2) Culture media were changed every 3 days. […] The stable clones were selected using G418.
(In general: A reporter such as luciferase makes a cellular process visible.)

Data set [3] has the same test system. Kind of data set: SEAP reporter assay of hTERT expression, PhTERT-SEAP (H1299). It counts as cell-based, human. The note with it: PhTERT-SEAP(hTERT-H1299). How it is done:
as §1, §2

For data set [4], the system named is non-small-cell lung cancer cells H1299. Kind of data set: MTT relative viability, PhTERT-SEAP (H1299) cells. The note with it: PhTERT-SEAP(hTERT-H1299).
The next data set relates to hTERT-BJ1 cells. Kind of data set: MTT relative viability, PhTERT-SEAP (hTERT-BJ1) cells. The note with it: PhTERT-SEAP (hTERT-BJ1).
Data set [5] can be described thus: MTT relative viability, PhTERT-SEAP (H1299) cells. The note with it: human.
Data set [6] can be described thus: MTT relative viability, PhTERT-SEAP (hTERT-BJ1) cells. The note with it: human.
The mark [7] stands for this setting: hTERT-BJ1 cells stably transfected with PhTERT-SEAP reporter.
Where [8] appears, read: hTERT-BJ1 cells, stable PhTERT-SEAP reporter clone.

In the case of “1,4-Bis(2,5-trifluorobenzoylamido)-9,10-anthracenedione [VI29]”, the half-maximal inhibitory concentration (IC50) is > 20 µM in the data set on human hepatoma G2 cells, 2.82 µM in the data set on rat glioma C6 cells and 2.2 µM in data set [1]. Also, the “Relative SEAP activity (%)” value in [2] (1.3 μM) is on record as 16 ± 31.8%; in data set [2] (13 μM), 24 ± 21.5%; in data set [2] (139 μM), 26 ± 36.9%; in [3] (1.3 μM), 106 ± 6.7%; in [3] (13 μM), 105 ± 7.9%; in [3] (139 μM) it was 94 ± 10.2%. In addition, the SEAP/vibility is 0.15 in [2] (1.3 μM); 0.28 in [2] (13 μM); 0.47 in [2] (139 μM); 1.07 in data set [3] (1.3 μM); 1.32 in data set [3] (13 μM); 2.56 in data set [3] (139 μM). Besides, the “Relative MTT viability (%)” value in data set [4] (1.3 μM) came to 99 ± 8.6%; in [4] (13 μM) it was 79 ± 10.3%; in [4] (139 μM) it was 37 ± 8.8%; in the data set with hTERT-BJ1 cells (1.3 μM), 107 ± 6.4%; with hTERT-BJ1 cells (13 μM) it was 85 ± 4.8%; in the data set on hTERT-BJ1 cells (139 μM), 56 ± 4.6%.
For “1,4-Bis[3-(aminomethyl)cyclopropanepropionamido]-9,10-anthracenedione [VI37]”, the results for the IC50 (in the data set with human hepatoma G2 cells; with rat glioma C6 cells; in data set [1]) were 0.32 µM, 0.4 µM and 1.71 µM, respectively. Further, the “Relative SEAP activity (%)” value stood at 97 ± 13.8% in [2] (2.0 μM); 124 ± 22.8% in data set [2] (20 μM); 105 ± 17.7% in [2] (204 μM); 95 ± 4.2% in data set [3] (2.0 μM); 91 ± 8.9% in data set [3] (20 μM); 52 ± 4.4% in data set [3] (204 μM). The SEAP/vibility in [2] (2.0 μM) is listed as 1.02; in [2] (20 μM), 1.48; in data set [2] (204 μM), 3.01; in data set [3] (2.0 μM), 0.88; in data set [3] (20 μM), 1.09; in [3] (204 μM) it was 0.77. The “Relative MTT viability (%)” value in [4] (2.0 μM) is 108 ± 7.8%; in [4] (20 μM), 83 ± 1.6%; in data set [4] (204 μM) it was 67 ± 9.8%; in the data set with hTERT-BJ1 cells (2.0 μM), 95 ± 2.5%; with hTERT-BJ1 cells (20 μM), 84 ± 1.5%; with hTERT-BJ1 cells (204 μM), 35 ± 3.7%.
For the molecule `O=C(Nc1ccc(NC(=O)c2ccccc2Cl)c2c1C(=O)c1ccccc1C2=O)c1ccccc1Cl` [VI2, 1,4-Bis(2-chlorobenzoylamido)-9,10-anthracenedione], the half-inhibitory concentration (IC50) (in the data set on human hepatoma G2 cells; in the data set on rat glioma C6 cells; in data set [1]) was > 20 µM throughout. The “Relative SEAP activity (%)” value in data set [2] (1.9 μM) was 110 ± 20.1%; in data set [2] (19 μM), 96 ± 33.4%; in [2] (194 μM), 95 ± 36.6%; in data set [3] (1.9 μM), 108 ± 10.5%; in data set [3] (19 μM), 105 ± 7.7%; in [3] (194 μM), 100 ± 8.9%. In addition, the SEAP/vibility worked out at 0.95 in [2] (1.9 μM); 0.88 in [2] (19 μM); 1.00 in data set [2] (194 μM); 0.94 in [3] (1.9 μM); 1.47 in data set [3] (19 μM); 1.68 in data set [3] (194 μM). The “Relative MTT viability (%)” value in data set [4] (1.9 μM) is on record as 114 ± 5.4%; in data set [4] (19 μM), 72 ± 3.6%; in data set [4] (194 μM), 60 ± 7.9%; with hTERT-BJ1 cells (1.9 μM), 116 ± 7.7%; in the data set on hTERT-BJ1 cells (19 μM), 109 ± 2.2%; with hTERT-BJ1 cells (194 μM) it was 95 ± 2.0%.
With `CC(=O)Nc1ccc(NC(C)=O)c2c1C(=O)c1ccccc1C2=O` [VI3, 1,4-Bisacetamido-9,10-anthracenedione], the 50% inhibitory concentration (IC50) in the data set on human hepatoma G2 cells (Homo sapiens, HepG2) was > 20 µM; in the data set with rat glioma C6 cells (Rattus norvegicus, C6), > 20 µM; in data set [1] (Homo sapiens, HepG2.2.15), > 20 µM. The SEAP/vibility in [2] (3.1 μM) was 0.66; in data set [2] (31 μM), 0.87; in data set [2] (310 μM), 1.20; in [3] (3.1 μM), 0.78; in [3] (31 μM), 0.83; in data set [3] (310 μM) it was 2.16. Besides, the activity at 3.1 µM in data set [2] (Homo sapiens, 3.1 μM, read-out: Relative SEAP activity (%)) is 77 ± 12.4%; in [3] (Homo sapiens, NCI-H1299, 3.1 μM, read-out: Relative SEAP activity (%)), 85 ± 2.3%. In addition, the activity at 31 µM in [2] (Homo sapiens, 31 μM, read-out: Relative SEAP activity (%)) came out at 83 ± 10%; in [3] (Homo sapiens, NCI-H1299, 31 μM, read-out: Relative SEAP activity (%)) it was 90 ± 3.3%. The activity at 310 µM in data set [2] (Homo sapiens, 310 μM, read-out: Relative SEAP activity (%)) was 59 ± 15.2%; in [3] (Homo sapiens, NCI-H1299, 310 μM, read-out: Relative SEAP activity (%)) it was 80 ± 3.1%. Moreover, the viability at 48 h, 3.1 µM worked out at 109 ± 3.5% in [5] and 117 ± 3% in data set [6] (setting [7]). Also, the viability at 48 h, 31 µM in data set [5] was 108 ± 3.6%; in data set [6] (setting [7]), 95 ± 11.9%. Besides, the viability at 48 h, 310 µM was 37 ± 1.3% in data set [5] and 49 ± 8.9% in data set [6] (setting [7]).
Turning to `CCN(CC)CCC(=O)Nc1ccc(NC(=O)CCN(CC)CC)c2c1C(=O)c1ccccc1C2=O` [VI34, 1,4-Bis[3-(diethylamino)propionamido]-9,10-anthracenedione], the IC50 turned out to be 0.49 µM with human hepatoma G2 cells (Homo sapiens, HepG2); 0.9 µM in the data set on rat glioma C6 cells (Rattus norvegicus, C6); 0.28 µM in data set [1] (Homo sapiens, HepG2.2.15). The SEAP/vibility in data set [2] (2.0 μM) is 0.03; in [2] (20 μM) it was −0.13; in [2] (203 μM), −0.37; in [3] (2.0 μM), 0.79; in data set [3] (20 μM) it was 4.63; in [3] (203 μM), 44.24. Also, the activity at 2 µM in data set [2] (Homo sapiens, 2.0 μM, read-out: Relative SEAP activity (%)) was 2 ± 11.1%; in [3] (Homo sapiens, NCI-H1299, 2.0 μM, read-out: Relative SEAP activity (%)), 73 ± 2.7%. Also, the activity at 20 µM in data set [2] (Homo sapiens, 20 μM, read-out: Relative SEAP activity (%)) is -2%; in [3] (Homo sapiens, NCI-H1299, 20 μM, read-out: Relative SEAP activity (%)) it was 53 ± 2.7%. The activity at 203 µM in data set [2] (Homo sapiens, 203 μM, read-out: Relative SEAP activity (%)) is -2%; in data set [3] (Homo sapiens, NCI-H1299, 203 μM, read-out: Relative SEAP activity (%)) it was 39 ± 0.8%. Besides, the values for the viability at 48 h, 2 µM in [5] and in [6] (setting [8]) were 92 ± 6.1% and 83 ± 9.2%, respectively. The viability at 48 h, 20 µM in data set [5] amounted to 11 ± 2.5%; in data set [6] (setting [8]) it was 15 ± 3.9%. Further, the viability at 48 h, 203 µM in data set [5] came to 1 ± 2.4%; in [6] (setting [8]), 6 ± 3.9%.

One may read the IC50 as the concentration needed to halve the response being measured. High values mean a need for much substance, low ones inhibition by little substance. One may read the viability as a read-out of living cells in per cent, often relative to untreated cells.
